Molecules are shown by their SMILES. Like-named read-outs stand apart in the source and are kept apart here.

This note sets out measurements from publication PMC11843613, “Further Optimization of the mGlu1 PAM VU6024578/BI02982816: Discovery and Characterization of VU6033685” (ACS Chemical Neuroscience, 2025).

Series [1] is described as follows: Plasma protein binding (dog). The series is classed as in vitro ADME. To be noted: pH 7.4, read-out: fu plasma (d). How it is done:
page 13: at half log concentrations in DMSO were further diluted in assay buffer. The compounds or DMSO vehicle were added to cells and incubated for 2.5 min and an EC20 concentration of glutamate was added and incubated for 1 min. An ECmax concentration of glutamate was also added to cells that were incubated with DMSO vehicle to accurately calculate the EC20 calcium response. Data were normalized by subtracting the basal florescent peak before EC20 agonist addition from the maximal peak elicited by EC20 agonist and PAMs. Using GraphPad Prism 5.0, the concentration response curves were generated and the potencies of the mGlu1 PAMs were determined. DMPK Methods Plasma protein binding: The protein binding of each compound was determined in plasma via equilibrium dialysis employing RED Plates (ThermoFisher Scientific, Rochester, NY). Plasma was added to the 96 well plate containing test compound and mixed thoroughly for a final concentration of 5 µM. Subsequently, an aliquot of the plasma-compound mixture was transferred to the cis chamber (red) of the RED plate, with an phosphate buffer (25 mM, pH 7.4) in the trans chamber. The RED plate was sealed and incubated for 4 hours at 37°C with shaking. […] The in vitro half-life (T 1/2, min, Eq. 1), intrinsic clearance (CLint, mL/min/kg, Eq. 2) and subsequent predicted hepatic clearance (CLhep, mL/min/kg, Eq. 3) was determined S13

Series [2] can be described thus: Dose escalation PO PK study in mice. The series is classed as in vivo, mouse.
Series [3] is described as follows: Three-day dose escalation toxicology study in mice. The series is classed as in vivo, mouse. The settings on record: for AUC at 3 day: in vivo.
Series [4] is described as follows: Single IV bolus PK and tolerability in male beagle dogs. To be noted: male beagle dog, 0.5 mg/kg IV bolus. The class given is in vivo.
The nature of series [5]: Rat tolerability in NOR and PO PK studies.

`Cc1nc(C2CC2)ccc1CNC(=O)c1cc(-n2cccn2)ccc1Cl` [compound 8]: the fraction unbound at 4 h, 5 µM in series [1] came out at 0.099. The “observations at >24-fold EC50 free brain” value in series [2] (mouse PO) is given as “without any observed AEs”. Besides, in series [2] (mouse PO 500 mg/kg), the “free brain concentration as fold of mouse EC50 at 500 mg/kg” value is around 90 fold; the “observations at 500 mg/kg” value is “all animals displayed uncoordinated movements and were cold to the touch”. Also, the “free brain concentration reached without AEs” value in series [2] (mouse PO dose escalation) is around 1250 nM. The “free brain concentration as fold of mouse EC50 reached without AEs” value in series [2] (mouse PO dose escalation (50, 150, 500 mg/kg)) is given as above 24 fold. In addition, the AUC at 3 day in series [3] (mouse, three-day, 50 mg/kg, read-out: AUCss at 50 mg/kg) was 5.5 µM·h. Moreover, in series [3] (mouse, three-day, 200 mg/kg, read-out: AUCss at 200 mg/kg), the AUC at 3 day came to 69.9 µM·h. Further, the AUC at 3 day in series [3] (mouse, three-day, high-dose group (printed 500 mg/kg), read-out: AUCss in high-dose group) worked out at 208 µM·h. Further, the “maximum tolerated dose (MTD)” value in series [3] (mouse three-day study) was “not reached”. Also, in series [3] (mouse, three-day, 50 mg/kg), the “findings at 50 mg/kg” value is reported as “no test-item-related findings”. Moreover, the “findings at 200 mg/kg” value in series [3] (mouse, three-day, 200 mg/kg) is “some of the mice showed signs of weight loss, decreased motor activity, and swaying gait”. Also, in series [3] (mouse, three-day, high-dose group (printed 500 mg/kg)), the “findings in high-dose group” value was “several mice displayed weight loss, decreased motor activity, and swaying gait”. For the same molecule, the “adverse events in dogs” value in series [4] was “all dogs displayed dizziness, salivation, and uncoordinated movements”. Besides, the clearance in series [4] (plasma, read-out: CLp (dog)) is 10 mL/min/kg. Moreover, the Vd in series [4] (plasma, read-out: Vss (dog)) stood at 4.6 L/kg. In addition, the half-life in series [4] (plasma, read-out: t1/2 (dog) (converted)) is 6.5 h. For the same molecule, in series [5] (rat PO), the “adverse events at 6.2-fold rat EC50 free in brain” value is “piloerection, slow movement, and reaction to stimuli”; the “duration of adverse events postdose” value was around 2 h. For the same molecule, in series [5] (rat PO PK studies), the “free brain concentration (fold rat EC50) that resulted in AEs” value is given as 6.2 fold and the “free brain concentration that resulted in AEs” value came out at 664 nM.
